For data set [1], the target named is T1, RORγt (Homo sapiens, UniProt P51449).
T1 construct: expressed in transfected cells
T1 sequence (P51449 269-508 limits assumed): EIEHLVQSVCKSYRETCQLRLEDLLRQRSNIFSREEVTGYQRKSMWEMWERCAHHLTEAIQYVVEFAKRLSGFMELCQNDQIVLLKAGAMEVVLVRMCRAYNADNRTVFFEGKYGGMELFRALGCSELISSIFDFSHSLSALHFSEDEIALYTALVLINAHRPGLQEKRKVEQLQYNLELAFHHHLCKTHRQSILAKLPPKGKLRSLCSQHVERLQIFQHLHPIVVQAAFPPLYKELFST
As to the kind of experiment: Gal4/RORγt-LBD luciferase reporter assay in RORγt-LBD+ Jurkat stable cells. The settings on record: RORγt-LBD+ Jurkat cells, 6 h. It counts as cell-based. The source says:
(§1) The pGL4.31 (luc2P/GAL4UAS/Hygro) and pBIND vectors were obtained from Promega (Madison, WI, USA). An IRES-GFP sequence was first cloned into the pBIND vector. Human RORγt was then amplified using cDNA isolated from human peripheral blood mononuclear cells (PBMCs) (provided by Dr. Hui Zhang) and inserted into the reconstructed pBIND-IRES-GFP vector to generate a Gal4–RORγt-LBD-IRES-GFP fusion sequence. The primers that used to construct the pBIND- Gal4–RORγt-LBD-IRES-GFP plasmid are as follows: RORγt-LBD forward 5′- […]-3′,reverse5′- […] -3′.
A similar procedure was used to generate the Jurkat RORγt -LBD reporter cell line. For this, Jurkat cells (1 × 10^7) were transfected with pGL4.31 reporter plasmid (20 μg) by electroporation (Lonza, Basel, Switzerland) according to the manufacturer’s instructions. The transfected Jurkat cells were selected in RPMI 1640 medium containing 200 μg/mL hygromycin B prior to a second transfection. Stable Jurkat cotransfectants were then sorted based on GFP expression, and yielded a GFP^+ purity >96 % as determined by flow cytometry.
RORγt-LBD^+-Jurkat (2 × 10^4) stable cells were seeded into 96-well round-bottom plates (Corning Inc, Corning, NY) and incubated in RPMI1640 complete medium overnight. Then, Screened compounds (Enamine, Monmouth Junction, NJ) were added to the wells using a Tecan Freedom EVO 150 (Tecan, Männedorf, Switzerland) to a final concentration of 50 μM. Cells were treated with DMSO or 100 nM PMA (Sigma-Aldrich, St. Louis, MO) only for use as negative and positive controls, respectively. After a 6 h treatment period, cells were lysed and assayed for luciferase activity (Promega) following the manufacturer’s instructions.
RORγt-LBD^+-Jurkat cells were seeded into 96-well round-bottom plates (2 × 10^4) and cultured overnight prior to incubation with the screening compounds at 5-fold gradient final concentrations ranging from 5 μM to 8 nM. Cells were lysed 6 h later and assayed for luciferase activity (Promega) using the manufacturer’s instructions. Additionally, the results from the high-throughput screening at 50 μM concentration of candidates were also applied in the calculation of the EC50. The EC50 values were determined by plotting the logarithm of compound concentration versus relative luciferase activity to determine the half-maximal effective concentration (EC50).

Data set [2] deals with T1, RORγt. As to the kind of experiment: Gal4/RORγt-LBD luciferase reporter assay in RORγt-LBD+ 293 T stable cells. The format is cell-based. The settings on record: RORγt-LBD+ 293 T cells, 5 μM, 6 h.
Text: as §1
The pGL4.31 reporter plasmid (4 μg) was transfected into 293 T cells (1 × 10^6) with Lipofectamine™ 2000 (Invitrogen) according to manufacturer instructions. The transfected cells were then selected in a medium containing 100 μg/mL hygromycin B (Roche, San Francisco, CA, USA) for 3 weeks to obtain a cell population that expressed the pGL4.31 reporter gene. Then, the stable cells were transfected with pBIND-RORγt-LBD-IRES-GFP plasmid (4 μg). The cotransfectants were sorted by green fluorescent protein (GFP) expression, which yielded a RORγt-LBD^+ 293Tstable reporter cell line with >96 % purity as determined by flow cytometry.
RORγt-LBD^+-293 T (1x10^4) stable cells wereseeded into 96-well plates (Corning Inc., Corning, NY)and incubated in DMEM complete medium overnight. Then the candidates were added with a final concentration of 5 μM. […]

The subject of data set [3] is mouse Th17 cell differentiation. As to the kind of experiment: In vitro mouse Th17 cell differentiation, mRNA by quantitative PCR. The format is cell-based. The following applies: 5 μM, Th17-polarizing conditions (TGF-β, IL-6), 4 days, normalized to GAPDH. How it is done:
(§2) CD4^+CD25^− T cells were isolated from spleens of 8–12-week-old C57BL/6 mice as follows: single-cell suspensions were made by crushing the spleen through a cell strainer, and red blood cells (RBCs) were lysed with RBC lysis buffer. CD4^+ T cells were then purified using magnetic-activated cell sorting (MACS) column a CD4^+ T cell isolation kit (Miltenyi Biotec, Bergisch Gladbach, Germany) according to the manufacturer’s protocol.
(§3) Spleen cells (3 × 10^6) were stimulated in 6-well plates with 5 μg/mL plate-bound anti-CD3e antibody (eBioscience, San Diego, USA) and 2 μg/mL soluble anti-CD28 antibody (eBioscience) for 24 h. The activated cells were then collected, and seeded into 96-well round-bottom plates (2 × 10^4) for Th17 differentiation in the presence of 5 ng/mL recombinant human TGF-β (R&D Systems, Minneapolis, MN), 30 ng/mL recombinant mouse IL-6 (R&D Systems, Minneapolis, MN), and either the screening compounds (5 μM final concentration) or DMSO as control. After culturing for 2 days, fresh medium (100 uL/well) containing recombinant human TGF-β, recombinant mouse IL-6, and the previously-introduced screening compounds was added to the cells, which were then cultured for additional 2 days.
Total RNA was extracted from splenocytes with TRIzol (Invitrogen) after 5 days in culture. Approximately 1 μg total RNA was added to a 20 μL reaction volume for reverse transcription using the GoScript™ Reverse Transcription System (Promega) according to the manufacturer’s instructions. Synthesized cDNA was then used for real-time quantitative PCR using GoTaq® qPCR Master Mix (Promega). Gene expression of mouse Rorc, Il17a, and Il17f was normalized to that of Gapdh. The following primer sequences were used: Rorc forward 5′-TGTAATGTGG CCTACTCCTGCA-3′, reverse 5′-[…]-3′; Il17a forward 5′- […]-3′, reverse 5′-[…] -3′; Il17f forward 5′-[…]-3′, reverse 5′- […]-3′; Gapdh forward 5′-[…]-3′, reverse 5′-[…]-3′.

A further data set concerns IL-17A secretion. As to the kind of experiment: IL-17A secretion by ELISA in culture supernatant under Th17-polarizing conditions. The format is cell-based. The settings on record: mouse CD4+ T cells, compound 5 μM, 5 days. How it is done: as §2, §3
The concentration of IL-17A in the splenocyte supernatant after 5 days in culture was determined using an ELISA kit (CUSABIO, Wuhan, China) according to the manufacturer’s protocol.

Data set [4] can be described thus: Jurkat cell viability, MTT assay. It counts as cell-based, human. The following applies: human, wild-type Jurkat cells, highest concentration 5 μM. How it is done: (§4) Jurkat cell viability after culturing in the presence of the screened compounds was assessed by MTT assay. In brief, wild type Jurkat cells were seeded (2 × 10^4) and incubated with the compounds in 5-fold gradient dilutions. MTT (dimethylthiazolyl-2-5-diphenyltetrazolium bromide) dye solution (Sigma, St. Louis, MO, USA) was added 48 h later and incubated at 37 °C for 4 h, MTT was reduced by live cells into a colored formazan product. After centrifugation at 1500 rpm for 5 min, the supernatant was discarded and 100 μL DMSO was added to the plate, which was gently shaken for 10 min to dissolve the formazan product. Absorbance at 570 nm wavelength was recorded using Thermo Scientific Multiskan FC (Thermo Scientific, Waltham, MA, USA). Each treatment was repeated in quadruplicate. Cell viabilities were defined relative to control cells treated only with DMSO, with results used as evaluation of cytotoxicity of candidates. The half-maximal cytotoxic concentration (CC50) for each compound was calculated from the dose–response curves with the aid of GraphPad Prism software 5.0 (GraphPad Software, San Diego, CA).

Another data set concerns wild type Jurkat cells. As to the kind of experiment: Jurkat cell viability, MTT assay. The format is cell-based, human. The following applies: 48 h; for reduction of Jurkat cell viability over vehicle control: 5 μM (highest concentration). How it is done: as §4
Setting [5] is: read-out: EC50, inhibition of RORγt activity, Gal4/RORγt-reporter system.

Read-outs that look alike come from different tables or passages of the source. A value given as a limit tells only on which side of the number the result lay.

This note sets out measurements from paper PMC4446823, “Inhibition of RORγt activity and Th17 differentiation by a set of novel compounds” (BMC Immunology, 2015).

As to `CC1Cc2ccccc2N1S(=O)(=O)c1ccc(Cl)c(C(F)(F)F)c1` (centres unmarked) [744267-30-9, 1-[4-chloro-3-(trifluoromethyl)phenyl] sulfonyl-2-methyl-2,3-dihydroindole, reference compound], the EC50 at RORγt [1] (5 μM to 8 nM, read-out: EC50, relative luciferase activity, Gal4-reporter system) came to 0.723 µM. Moreover, at RORγt [2], the “reduction of RORγt activity in 293 T cells” value was “strongly inhibited”.
Turning to `Cc1cc(NC(=O)NC(c2ccc(C(C)C)cc2)c2cccs2)no1` (centres unmarked) [compound 29, 3-(5-methyl-1,2-oxazol-3-yl) - 1-[(4-propan-2-ylphenyl) - thiophen-2-ylmethyl] urea], at RORγt [1] (setting [5]), the EC50 was determined as 2.1 µM. In data set [3], the “Il17a gene expression compared with vehicle-treated control group” value is “significantly reduce” and the “Il17f gene expression compared with vehicle-treated control group” value was “significantly reduce”. For the same compound, in the data set on IL-17A secretion, the “IL-17A concentration in culture supernatant” value amounted to 209 pg/mL and the “reduction of IL-17A concentration compared with vehicle-treated control cells” value (from here on “reduction of IL-17A concentration”) was determined as 44%. Moreover, the CC50 at 48 h in data set [4] was more than 5 µM. Also, the “reduction of Jurkat cell viability over vehicle control” value (from here on “reduction of Jurkat cell viability”) in the data set on wild type Jurkat cells is “less than 25%”.
With `O=C(c1ccc(C2CCCCC2)cc1)N(CC1CCCO1)C1CCS(=O)(=O)C1` (centres unmarked) [compound 31, 4-cyclohexyl-N-(1,1-dioxothiolan-3-yl) - N-(oxolan-2-ylmethyl) benzamide], at RORγt [1] (setting [5]), the EC50 worked out at 17.5 µM. Moreover, in data set [3], the “Il17a gene expression compared with vehicle-treated control group” value is on record as “significantly reduce” and the “Il17f gene expression compared with vehicle-treated control group” value was “significantly reduce”. Also, in the data set with IL-17A secretion, the “IL-17A concentration in culture supernatant” value was found to be 226 pg/mL and the “reduction of IL-17A concentration” value is recorded as 39%. Moreover, the “reduction of Jurkat cell viability” value in the data set on wild type Jurkat cells was “less than 25%”.
`CCc1nnc(NC(=O)C2(S(=O)(=O)c3ccc(C)c(C)c3)CCCC2)s1` [compound 35, 1-(3,4-dimethylphenyl) sulfonyl-N-(5-ethyl-1,3,4-thiadiazol-2-yl) cyclopentane-1-carboxamide]: the EC50 on RORγt [1] (setting [5]) amounted to 28 µM. For the same compound, in data set [3], the “Il17a gene expression compared with vehicle-treated control group” value was “significantly reduce” and the “Il17f gene expression compared with vehicle-treated control group” value was “significantly reduce”. Besides, the “reduction of Jurkat cell viability” value in the data set with wild type Jurkat cells is given as “less than 25%”.
In the case of `CCCc1cc(C(=O)OCC(=O)NC(=O)NC2CCCC2)sc1C` [compound 36, 2- Thiophenecarboxylic acid, 5-methyl-4-propyl-,2-[[(cyclopentylamino)carbonyl]amino] - 2-oxoethyl ester], the EC50 at RORγt [1] (setting [5]) is 4.2 µM. In addition, in data set [3], the “Il17a gene expression compared with vehicle-treated control group” value is reported as “significantly reduce” and the “Il17f gene expression compared with vehicle-treated control group” value was “significantly reduce”. Also, in the data set on IL-17A secretion, the “IL-17A concentration in culture supernatant” value was found to be 189 pg/mL and the “reduction of IL-17A concentration” value stood at 49%. For the same compound, in the data set on wild type Jurkat cells, the “reduction of Jurkat cell viability” value is reported as “about 50%”. The compound further returned a CC50 with wild type Jurkat cells (wild-type Jurkat cells, highest concentration 5 μM) of more than 5 µM.
